For one assay, the system named is ethanol ulcer. Nature of the assay: Inhibition on ethanol ulcer. The assay is classed as in vivo, Sprague-Dawley rats. Conditions: 32 mg/kg, oral, 30 minutes before absolute ethanol (5 ml/kg); rats sacrificed one hour later; mean ulcer area vs control. Here is the method: (A) Inhibition on ethanol ulcer
Five male Sprague-Dawley rats, aged 7 weeks and weighing about 200 g, were used per group for the study on ethanol ulcer after the fast for 24 hours.
Test compound was suspended in 0.1% methylcellulose aqueous solution, and the suspension (5 ml/kg) was orally given to each rat.
The control group was given a vehicle, i.e. 0.1% methylcellulose aqueous solution (5 ml/kg), alone in the same way.
Absolute ethanol (5 ml/kg) was orally administered 30 minutes after dosing with test compound, and one hour later, the rats were sacrificed and their stomachs were removed. The area of ulcers of each rat was measured. The mean area […] in the medicated group was compared with that in the control group.

In a further assay the test system is Stress Ulcer. Nature of the assay: Inhibition on Stress Ulcer. The assay is classed as in vivo, Sprague-Dawley rats. Conditions: 32 mg/kg, oral, just before immobilization in water bath at 22° C.; seven hours; mean ulcer area vs control. Here is the method:
(B) Inhibition on Stress Ulcer
Five Sprague-Dawley rats weighing about 200 g were used per group. Each animal was immobilized in a small cage and put in a water bath allowing to respire. The temperature of the water bath kept at 22° C. The test compound was administered orally just before the immobilization. Seven hours later, the animals were sacrificed and their stomachs were removed. The stomach was then fixed with 2% formalin. The area of ulcers was measured for each animal. The mean area (mm^2) in the medicated animals was compared with that in the control animals.

Take `C#CCc1c(C)nc2c(OCc3c(C)cccc3NC(=O)OC)cccn12` [Test Compound (1), 8-(2-Methoxycarbonylamino-6-methylbenzyloxy)-2-methyl-3-(2-propynyl)imidazo[1,2-a]pyridine]: the “Inhibition % (ethanol ulcer area)” value with ethanol ulcer is on record as 93.2%. Further, in the assay on Stress Ulcer, the “Inhibition % (stress ulcer area)” value is 100%.

`C#CCc1c(C)nc2c(OCc3c(C)cccc3NC(N)=O)cccn12` [Test Compound (3), 2-methyl-8-(2-methyl-6-ureidobenzyloxy)-3-(2propynyl)imidazo[1,2-a]pyridin]: the “Inhibition % (stress ulcer area)” value in the assay on Stress Ulcer is on record as 100%.

Take `C#CCc1c(C)nc2c(OCc3c(C)cccc3NC(C)=O)cccn12` [Test Compound (2), 8-(2-Acetamido-6-methylbenzyloxy)-2-methyl-3(2-propynyl)imidazo[1,2-a]pyridine]: the “Inhibition % (stress ulcer area)” value with Stress Ulcer stood at 100%.

As for `C#CCc1c(C)nc2c(OCc3c(C)cccc3NC(N)=S)cccn12` [Test Compound (4), 2-Methyl-8-(2-methyl-6-thioureidobenzyloxy)-3(2-propynyl)imidazo[1,2-a]pyridine], the “Inhibition % (stress ulcer area)” value in the assay on Stress Ulcer is recorded as 100%.

Source of the values: US4831041A, “Imidazopyridine compounds and processes for preparation thereof” (Fujisawa Pharmaceutical Co., Ltd., priority 1986, dated 1989).
